Source: patent publication US20250282749A1 (Tango Therapeutics, Inc., priority 2022, published 2025)

Assays:
Type in all cases: cell-based
[1] = system: PRMT5 (SDMA) in HAP1 MTAP-intact cell line; assay: SDMA in-cell western assay, HAP1 MTAP-intact cell line; conditions: Homo sapiens, HAP1 MTAP-intact cell line (endogenous MTAP), read-out: Hap 1 MTAP intact IC50
Excerpt: (§1) HAP1 MTAP-intact is a cell line in which endogenous levels of MTAP are expressed, and HAP1 MTAP-deleted is an MTAP-null cell line.

[2] = system: PRMT5 (SDMA) in HAP1 MTAP-deleted cell line; assay: SDMA in-cell western assay, HAP1 MTAP-deleted cell line; conditions: for IC50 / IC90: Homo sapiens, SDMA in-cell western, HAP1 MTAP-deleted (MTAP-null) cell line; for Hap1 MTAP intact/deleted ratio: ratio of SDMA in-cell western IC50 in HAP1 MTAP-intact to IC50 in HAP1 MTAP-deleted cell line
Excerpt: as §1

[3] = system: HAP1 MTAP-deleted cell line; assay: viability assay for the MTAP-deleted cell line; conditions: Homo sapiens

| Compound | IC50 [1] [µM] | IC50 [2] [µM] | IC90 [2] [µM] | Hap1 MTAP intact/deleted ratio [2] | IC50 [3] [µM] |
| --- | --- | --- | --- | --- | --- |
| C[C@@H]1CN(C(=O)C(=O)Nc2cnc(N)c(C3CC3)c2)[C@@H](c2ccc(F)cc2)CN1C(=O)OC(C)(C)C (stereo in doubt) [Compound 148, tert-butyl 4-(2-((6-amino-5-cyclopropylpyridin-3-yl)amino)-2-oxoacetyl)-5-(4-fluorophenyl)-2-methylpiperazine-1-carboxylate] | > 0.05 | < 0.005 | > 0.125 | A (an IC50 ratio greater than or equal to 30 fold) | < 0.1 |
| CCc1cc(NC(=O)C(=O)N2C[C@@H](C)N(C(=O)C3(C)CC3)C[C@@H]2c2ccccc2)cnc1N [Compound 58, N-(6-amino-5-ethylpyridin-3-yl)-2-((2S,5R)-5-methyl-4-(1-methylcyclopropanecarbonyl)-2-phenylpiperazin-1-yl)-2-oxoacetamide] | > 0.05 | 0.005 to 0.05 | < 0.075 | C (an IC50 ratio of less than 15 fold) | < 0.1 |
| C[C@@H]1CN(C(=O)C(=O)Nc2cnc(N)c3cn[nH]c23)[C@@H](c2ccc(F)cc2)CN1C(=O)C(C)(C)C [Compound 46] | 0.005 to 0.05 | < 0.005 | < 0.075 | C (an IC50 ratio of less than 15 fold) | < 0.1 |
| C[C@@H]1CN(C(=O)C(=O)Nc2cnc(N)c(C3CC3)c2)[C@@H](c2ccccc2)CN1C(=O)C1(C)CC1 [Compound 94, N-(6-amino-5-cyclopropylpyridin-3-yl)-2-((2S,5R)-5-methyl-4-(1-methylcyclopropanecarbonyl)-2-phenylpiperazin-1-yl)-2-oxoacetamide] | > 0.05 | < 0.005 | 0.075 to 0.125 | B (an IC50 ratio greater than or equal to 15 fold but lower than 30 fold) | < 0.1 |
| Cc1cc(NC(=O)C(=O)N2C[C@@H](C)N(C(=O)C3(C(F)(F)F)CC3)C[C@@H]2c2cc(Cl)cc(Cl)c2)cnc1N [Compound 62, N-(6-amino-5-methylpyridin-3-yl)-2-((2S,5R)-2-(3,5-dichlorophenyl)-5-methyl-4-(1-(trifluoromethyl)cyclopropanecarbonyl)piperazin-1-yl)-2-oxoacetamide] | > 0.05 | 0.005 to 0.05 | 0.075 to 0.125 | A (an IC50 ratio greater than or equal to 30 fold) | < 0.1 |
| CC(=O)N1C[C@H](c2ccccc2)N(C(=O)C(=O)Nc2cnc(N)c3cn[nH]c23)C[C@H]1C [Compound 52] | > 0.05 | 0.005 to 0.05 | < 0.075 | B (an IC50 ratio greater than or equal to 15 fold but lower than 30 fold) | < 0.1 |
| C[C@@H]1CN(C(=O)C(=O)Nc2cnc(N)c(C3CC3)c2)[C@@H](c2ccc(F)c(F)c2)CN1C(=O)C1(C(F)(F)F)CC1 [Compound 22] | > 0.05 | 0.005 to 0.05 | 0.075 to 0.125 | B (an IC50 ratio greater than or equal to 15 fold but lower than 30 fold) | < 0.1 |
| COc1ncc(NC(=O)C(=O)N2C[C@@H](C)N(C(=O)C3(C(F)(F)F)CC3)C[C@@H]2c2ccc(F)c(Cl)c2)cc1C(N)=O [Compound 63, 5-(2-((2S,5R)-2-(3-chloro-4-fluorophenyl)-5-methyl-4-(1-(trifluoromethyl)cyclopropanecarbonyl)piperazin-1-yl)-2-oxoacetamido)-2-methoxynicotinamide] | > 0.05 | 0.005 to 0.05 | 0.075 to 0.125 | A (an IC50 ratio greater than or equal to 30 fold) | 0.1 to 1 |
| CC(C)C(=O)N1C[C@@H](c2ccc(F)cc2)N(C(=O)C(=O)Nc2cnc(N)c(C3CC3)c2)C[C@@H]1C [Compound 115, N-(6-amino-5-cyclopropyl-3-pyridyl)-2-[(2R,5S)-2-(4-fluorophenyl)-5-methyl-4-(2-methylpropanoyl)piperazin-1-yl]-2-oxo-acetamide] | > 0.05 | > 0.05 | > 0.125 | C (an IC50 ratio of less than 15 fold) | > 1 |
| Cc1cc(NC(=O)C(=O)N2C[C@@H](C)N(C(=O)OC(C)(C)C)C[C@@H]2c2ccccc2)cnc1N [Compound 25] | 0.005 to 0.05 | < 0.005 | < 0.075 | C (an IC50 ratio of less than 15 fold) | < 0.1 |
| CCc1cc(NC(=O)C(=O)N2C[C@@H](C)N(C(=O)C3(C)CC3)C[C@@H]2c2ccc(F)cc2)cnc1N [Compound 60, N-(6-amino-5-ethylpyridin-3-yl)-2-((2S,5R)-2-(4-fluorophenyl)-5-methyl-4-(1-methylcyclopropanecarbonyl)piperazin-1-yl)-2-oxoacetamide] | 0.005 to 0.05 | < 0.005 | < 0.075 | C (an IC50 ratio of less than 15 fold) | < 0.1 |
| CC(C)C(=O)N1C[C@H](c2ccccc2)N(C(=O)C(=O)Nc2cnc(N)c(C3CC3)c2)C[C@H]1C [Compound 98, N-(6-amino-5-cyclopropylpyridin-3-yl)-2-((2S,5R)-4-isobutyryl-5-methyl-2-phenylpiperazin-1-yl)-2-oxoacetamide] | > 0.05 | 0.005 to 0.05 | 0.075 to 0.125 | C (an IC50 ratio of less than 15 fold) | < 0.1 |
| C[C@@H]1CN(C(=O)C(=O)Nc2cnc(N)c(C3CC3)c2)[C@@H](c2ccc(F)c(F)c2)CN1C(=O)C1(C)CC1 [Compound 59, N-(6-amino-5-cyclopropylpyridin-3-yl)-2-((2S,5R)-2-(3,4-difluorophenyl)-5-methyl-4-(1-methylcyclopropanecarbonyl)piperazin-1-yl)-2-oxoacetamide] | > 0.05 | < 0.005 | < 0.075 | B (an IC50 ratio greater than or equal to 15 fold but lower than 30 fold) | < 0.1 |
| Cc1cc(NC(=O)C(=O)N2C[C@@H](C)N(C(=O)C(C)(C)C)C[C@@H]2c2ccccc2)cnc1N [Compound 99, N-(6-amino-5-methylpyridin-3-yl)-2-((2S,5R)-5-methyl-2-phenyl-4-pivaloylpiperazin-1-yl)-2-oxoacetamide] | 0.005 to 0.05 | < 0.005 | < 0.075 | C (an IC50 ratio of less than 15 fold) | < 0.1 |
| Cc1cc(NC(=O)C(=O)N2C[C@@H](C)N(C(=O)C(C)C)C[C@@H]2c2ccc(F)c(F)c2)cnc1N [Compound 158, N-(6-amino-5-methylpyridin-3-yl)-2-((2S,5R)-2-(3,4-difluorophenyl)-4-isobutyryl-5-methylpiperazin-1-yl)-2-oxoacetamide] | > 0.05 | 0.005 to 0.05 | > 0.125 | A (an IC50 ratio greater than or equal to 30 fold) | 0.1 to 1 |
| CC(C)C(=O)N1C[C@H](c2ccc(F)cc2)N(C(=O)C(=O)Nc2cnc(N)c(C3CC3)c2)C[C@H]1C [Compound 86, N-(6-amino-5-cyclopropylpyridin-3-yl)-2-((2S,5R)-2-(4-fluorophenyl)-4-isobutyryl-5-methylpiperazin-1-yl)-2-oxoacetamide] | > 0.05 | 0.005 to 0.05 | < 0.075 | C (an IC50 ratio of less than 15 fold) | < 0.1 |
| CC(C)C(=O)N1C[C@H](c2ccc(F)c(F)c2)N(C(=O)C(=O)Nc2cnc(N)c(C3CC3)c2)C[C@H]1C [Compound 75, N-(6-amino-5-cyclopropylpyridin-3-yl)-2-((5R)-2-(3,4-difluorophenyl)-4-isobutyryl-5-methylpiperazin-1-yl)-2-oxoacetamide] | > 0.05 | 0.005 to 0.05 | > 0.125 | C (an IC50 ratio of less than 15 fold) | < 0.1 |
| C[C@@H]1CN(C(=O)C(=O)Nc2cncc3cn[nH]c23)[C@@H](c2ccccc2)CN1CC(C)(C)C [Compound 44, 2-oxo-N-(1H-pyrazolo[4,3-c]pyridin-7-yl)-2-[(2S,5R)-4-(2,2-dimethylpropyl)-5-methyl-2-phenyl-piperazin-1-yl]acetamide] | > 0.05 | < 0.005 | < 0.075 | A (an IC50 ratio greater than or equal to 30 fold) | 0.1 to 1 |
| CCc1cc(NC(=O)C(=O)N2C[C@@H](C)N(CC(C)C)C[C@@H]2c2ccccc2)cnc1N [Compound 32, N-(6-amino-5-ethylpyridin-3-yl)-2-((2S,5R)-4-isobutyl-5-methyl-2-phenylpiperazin-1-yl)-2-oxoacetamide] | > 0.05 | 0.005 to 0.05 | > 0.125 | A (an IC50 ratio greater than or equal to 30 fold) | < 0.1 |
| Cc1cc(NC(=O)C(=O)N2C[C@@H](C)N(C(=O)C3(C)CC3)C[C@@H]2c2cccs2)cnc1N (single isomer, unassigned) [Compound 53] | 0.005 to 0.05 | < 0.005 | < 0.075 | C (an IC50 ratio of less than 15 fold) | < 0.1 |
| C[C@@H]1CN(C(=O)C(=O)Nc2cncc3cn[nH]c23)[C@@H](c2ccc(N3CCN(C)CC3)cc2)CN1C(=O)C(C)(C)C [Compound 142, 2-((2S,5R)-5-methyl-2-(4-(4-methylpiperazin-1-yl)phenyl)-4-pivaloylpiperazin-1-yl)-2-oxo-N-(1H-pyrazolo[4,3-c]pyridin-7-yl)acetamide] | > 0.05 | 0.005 to 0.05 | < 0.075 | C (an IC50 ratio of less than 15 fold) | < 0.1 |
